Read-outs that look alike come from different tables or passages of the source.
Columns and labels:
[1] = test system: iCell endothelial cells (human iPSC-derived ECs); experiment: High-content imaging cytotoxicity in iCell endothelial cells, 24 h; type: cell-based; conditions: for minimal effective concentration: Homo sapiens, Endothelial cell, endothelial cells (endo), 24 hr; for effect on cell viability in iPSC-ECs: 0.01-100 μM
Procedure, shortened: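 Readouts were vehicle-normalised and fitted to a four-parameter logistic model. POD was set at one SD beyond 0.5% DMSO control means, and 100 µM was assigned when no response was seen. Cells were monolayers of iCell endothelial cells imaged after 24 h compound exposure using nuclear, mitochondrial and calcein dyes.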

[2] = test system: iPSC-CMs, iPSC-ECs and HUVECs phenotypes; experiment: ToxPi 2.0 integration of POD values and physicochemical descriptors; set-up: species or system human; conditions: ToxPi-scaled (0-1) score; for huvec.cyto.24hr / huvec.mito.24hr / huvec.mitoint.24hr / huvec.nma.24hr / huvec.tc.24hr / huvec.mtl.18hr / huvec.tlps.18hr / huvec.tta.18hr / huvec.ttl.18hr: HUVECs; for huvec.mtl.18hr / huvec.tlps.18hr / huvec.tta.18hr / huvec.ttl.18hr / endo.mtl.18hr / endo.tlps.18hr / endo.tta.18hr / endo.ttl.18hr: tube formation; for cm.amp.avg.90min / cm.amp.cv.90min / cm.bpm.90min / cm.cam.90min / cm.decay.rise.90min / cm.mii.90min / cm.mito.90min / cm.spacing.cv.90min / cm.tc.90min / cm.amp.avg.24hrs / cm.amp.cv.24hrs / cm.bpm.24hrs / cm.cam.24hrs / cm.decay.rise.24hrs / cm.mii.24hrs / cm.mito.24hrs / cm.spacing.cv.24hrs / cm.tc.24hrs: iPSC cardiomyocytes; for endo.cyto.24hr / endo.mito.24hr / endo.mitoint.24hr / endo.nma.24hr / endo.tc.24hr / endo.mtl.18hr / endo.tlps.18hr / endo.tta.18hr / endo.ttl.18hr: iPSC endothelial cells
Procedure, shortened: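 Phenotypic readouts in iPSC-cardiomyocytes, iPSC-endothelial cells and HUVECs were normalised to 0.5% DMSO vehicle and fitted to a four-parameter logistic model. POD set at one SD cutoff of vehicle means, with 100 μM assigned when no response. PODs and physicochemical descriptors combined in ToxPi 2.0 scores.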

[3] = cyto, read-out: POD endo.cyto.24hr
[4] = mito, read-out: POD endo.mito.24hr
[5] = mitoint, read-out: POD endo.mitoint.24hr
[6] = nma, read-out: POD endo.nma.24hr

Question: How did the minimal effective concentration [1, 3] turn out when `Clc1ccc(-c2ccccc2)cc1` [PCB 3, 4-chlorobiphenyl] was run?
Answer: 100 µM

Question: And the minimal effective concentration [1, 4]?
Answer: 100 µM

Question: And the minimal effective concentration [1, 5]?
Answer: 100 µM

Question: And the minimal effective concentration [1, 6]?
Answer: 100 µM

Question: What about the minimal effective concentration ([1]; tc, read-out: POD endo.tc.24hr) of the same compound?
Answer: 100 µM

Question: What about the “effect on cell viability in iPSC-ECs” value [1] of the same compound?
Answer: did not affect cell viability

Question: What about the huvec.cyto.24hr [2] of the same compound?
Answer: 0

Question: And the huvec.mito.24hr [2]?
Answer: 0

Question: What about the huvec.mitoint.24hr [2] of the same compound?
Answer: 0

Question: And the huvec.nma.24hr [2]?
Answer: 0

Question: And the huvec.tc.24hr [2]?
Answer: 0

Question: And the huvec.mtl.18hr [2]?
Answer: 0.3075

Question: What about the huvec.tlps.18hr [2] of the same compound?
Answer: 0

Question: And the huvec.tta.18hr [2]?
Answer: 0.9931

Question: And the huvec.ttl.18hr [2]?
Answer: 0.7484

Question: And the cm.amp.avg.90min [2]?
Answer: 0.3083

Question: And the cm.amp.cv.90min [2]?
Answer: 0.6784

Question: What about the cm.bpm.90min [2] of the same compound?
Answer: 0.3832

Question: What about the cm.cam.90min [2] of the same compound?
Answer: 0.5745

Question: And the cm.decay.rise.90min [2]?
Answer: 0

Question: What about the cm.mii.90min [2] of the same compound?
Answer: 1

Question: And the cm.mito.90min [2]?
Answer: 0.6328

Question: What about the cm.spacing.cv.90min [2] of the same compound?
Answer: 1

Question: And the cm.tc.90min [2]?
Answer: 0.6608

Question: And the cm.amp.avg.24hrs [2]?
Answer: 0.05114

Question: What about the cm.amp.cv.24hrs [2] of the same compound?
Answer: 0.2083

Question: And the cm.bpm.24hrs [2]?
Answer: 0.1867

Question: What about the cm.cam.24hrs [2] of the same compound?
Answer: 0.3496

Question: What about the cm.decay.rise.24hrs [2] of the same compound?
Answer: 0.3179

Question: What about the cm.mii.24hrs [2] of the same compound?
Answer: 0.587

Question: What about the cm.mito.24hrs [2] of the same compound?
Answer: 0.5833

Question: What about the cm.spacing.cv.24hrs [2] of the same compound?
Answer: 0.1653

Question: And the cm.tc.24hrs [2]?
Answer: 0.6127

Question: What about the endo.cyto.24hr [2] of the same compound?
Answer: 0

Question: And the endo.mito.24hr [2]?
Answer: 0

Question: And the endo.mitoint.24hr [2]?
Answer: 0

Question: And the endo.nma.24hr [2]?
Answer: 0

Question: And the endo.tc.24hr [2]?
Answer: 0

Question: And the endo.mtl.18hr [2]?
Answer: 0

Question: What about the endo.tlps.18hr [2] of the same compound?
Answer: 0

Question: And the endo.tta.18hr [2]?
Answer: 0

Question: What about the endo.ttl.18hr [2] of the same compound?
Answer: 0

Question: Which results are given for `Clc1cccc(-c2cccc(Cl)c2)c1` [PCB 11, 3,3′-Dichlorobiphenyl]?
Answer: minimal effective concentration [1, 3]: 100 µM; minimal effective concentration [1, 4]: 100 µM; minimal effective concentration [1, 5]: 100 µM; minimal effective concentration [1, 6]: 100 µM; minimal effective concentration ([1]; tc, read-out: POD endo.tc.24hr): 100 µM; effect on cell viability in iPSC-ECs [1]: did not affect cell viability; huvec.cyto.24hr [2]: 0.2265; huvec.mito.24hr [2]: 0.2773; huvec.mitoint.24hr [2]: 0.5099; huvec.nma.24hr [2]: 0.3029; huvec.tc.24hr [2]: 0.2265; huvec.mtl.18hr [2]: 0; huvec.tlps.18hr [2]: 0.1652; huvec.tta.18hr [2]: 0; huvec.ttl.18hr [2]: 0; cm.amp.avg.90min [2]: 0.6423; cm.amp.cv.90min [2]: 0.3673; cm.bpm.90min [2]: 0.1538; cm.cam.90min [2]: 0.6939; cm.decay.rise.90min [2]: 0.6828; cm.mii.90min [2]: 0.779; cm.mito.90min [2]: 0.7948; cm.spacing.cv.90min [2]: 0.06972; cm.tc.90min [2]: 0.7336; cm.amp.avg.24hrs [2]: 0.07152; cm.amp.cv.24hrs [2]: 0.5878; cm.bpm.24hrs [2]: 0.1537; cm.cam.24hrs [2]: 0.1401; cm.decay.rise.24hrs [2]: 0.254; cm.mii.24hrs [2]: 0.6195; cm.mito.24hrs [2]: 0.2384; cm.spacing.cv.24hrs [2]: 0.3725; cm.tc.24hrs [2]: 0.241; endo.cyto.24hr [2]: 0; endo.mito.24hr [2]: 0; endo.mitoint.24hr [2]: 0; endo.nma.24hr [2]: 0; endo.tc.24hr [2]: 0; endo.mtl.18hr [2]: 0; endo.tlps.18hr [2]: 0; endo.tta.18hr [2]: 0; endo.ttl.18hr [2]: 0

— article PMC7377239, “Cardiovascular Effects of Polychlorinated Biphenyls and Their Major Metabolites” (Environmental Health Perspectives, 2020)
